Results on 4 compounds are retold here after article PMC6567565, “Modulation of neurological pathways by Salvia officinalis and its dependence on manufacturing process and plant parts used” (BMC Complementary and Alternative Medicine, 2019).

pIC50, pKd: −log10 of the molar value. Structures can show the parent of a compound that is named as a salt.

By pIC50 is commonly meant −log10 of the IC50, conventionally taken in molar units. The pKd is the negative decadic logarithm of the Kd, by convention in mol/L.

One experiment concerns AChE. Further details: method as in ref 31 (Kishibayashi et al.). As to conditions: ref 31 (Kishibayashi et al.); cited from earlier work.
For experiment [1], the target named is human serotonin transporters. On the set-up: method as in ref 33 (Tatsumi et al.). As to conditions: [3H]-imipramine binding; ref 33 (Tatsumi et al.); cited from earlier work.
The target in experiment [2] is human serotonin 5-HT2C(e) receptors. The experiment is described as follows: serotonin 5-HT2C(e) receptor binding assay ([3H]-mesulergine). The note with it: reference compound. The procedure:
(§1) The serotonin 5-HT2C(e) receptor binding assay was performed according to the data sheet provided by the supplier of the receptor preparation, with modifications. The receptor preparation was incubated for 120 min at 37 °C in 50 mM Tris-HCl (pH 7.4), 0.1% ascorbic acid and 10 μM pargyline with 0.5 nM [N^6-methyl-^3H]-mesulergine in the dark.
All assays were terminated by transfer of the samples onto filter plates (PerkinElmer or Whatman), presoaked in assaybuffer (GABAA, GABAB, alpha2A and muscarinic M3), treated with 0.5% BSA (μ-opioid), presoaked with 0.5% polyethyleneimine (5-HT2B, 5-HT2C(e)), or presoaked with 0.1% polyethyleneimine (5-HT1A, 5-HTT). Filters were washed four times with 200 μl of ice-cold 50 mM Tris-HCl pH 7.4 (GABAA, GABAB, Alpha2A, 5-HT1A, 5-HT2B 5-HT2C(e), μ-opioid, and muscarinic M3) or 50 mM Tris-HCl pH 7.4/0.5 M NaCl (5-HTT), and filter-bound radioactivity was determined by a microplate reader (Microbeta, Wallac, Finnland). […]
The IC50 value (concentration causing half-maximal inhibition of specific binding) was determined by non-linear regression analysis of the competition curves using the “sigmoidal dose-response” algorithm (GraphPad Prism, San Diego, USA). […]

In experiment [3] the target is serotonin 5-HT2C receptor. Nature of the experiment: [3H]-mesulergine binding in native female hypothalami preparation. As to conditions: reference compound. On the set-up: species or system human. The procedure:
Human frozen hypothalami were from a healthy person and a healthy person (Tissue Solutions Ltd., Glasgow, UK). The tissue was minced in 20 ml 10 mM HEPES pH 7.4, 1 mM EDTA on ice with a disperger (20 s at 28 Trpm) and centrifuged for 15 min at 31,600×g at 4 °C. The pellet was homogenized (10 strokes with a glass-teflon homogenizer, 2000 rounds per minute) at 4 °C and again centrifuged. The latter procedure was repeated once and the pellet finally resupended in 50 mM HEPES pH 7.4, 4 mM MgCl2, and 1 mM EDTA; frozen in liquid nitrogen; and stored at − 80 °C until usage.
as §1
In membranes from human native female hypothalami, no specific binding of the radioligand for the 5-HT1A, [^3H]-8-OH-DPAT, could be observed, indicating the absence of the serotonin 5-HT1A receptor at least in the investigated preparation.

Experiment [4] addresses benzodiazepine site of the GABAA receptor. The experiment is described as follows: GABAA-benzodiazepine site binding assay ([3H]-Ro-15-1788). The note with it: reference compound.
Description: The GABAA-benzodiazepine site binding assay was performed as described by Mehta and Shank [28], with minor modifications. Membranes were incubated for 30 min at 22 °C in 50 mM Tris-HCl (pH 7.4) and 100 mM NaCl with 1 nM [^3H]-Ro-15-1788. Non-specific binding was determined with 10 μM diazepam.
From every data point non-specific binding was subtracted and data normalized (100% specific binding represents the specific binding of the radioligand to the binding site of the receptor in the absence of any effector).

On to `CN(C)C(=O)Oc1cccc([N+](C)(C)C)c1` [neostigmine], for which, in the experiment with AChE, the pIC50 is 7.44. For the compound `CN(C)CCCN1c2ccccc2CCc2ccccc21` [imipramine, Imipramine hydrochloride], the pKd in experiment [1] is 8.85.

Regarding `O=C1Nc2cc(Cl)c(Cl)cc2N2CCNCC12` (centres unmarked) [WAY 161503, WAY 161503 hydrochloride], the pIC50 in experiment [2] is 6.79; in experiment [3] it was 6.46. In the case of `CN1C(=O)CN=C(c2ccccc2)c2cc(Cl)ccc21` [diazepam], in experiment [4], the pIC50 was 7.41.
